Common to all, as to test: growth of human tumour cells (NCI), 48 h
In experiment [1] the test system is 786-0 renal.
Experiment [2] relates to KM12 colon.
In experiment [3] the test system is CCRF-CEM leukemia.
Experiment [4] deals with HCC-2998 colon.
The subject of experiment [5] is OVCAR-4 ovarian.
For experiment [6], the system named is A549 NSCLC.
For experiment [7], the system named is RXF 393 renal.
Experiment [8] has as its system NCI-H460 lung.

Several values for one entry are separate records, joined by “and”; a condition that tells them apart may be missing. Equal entries are not always repeated.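 In this assay, cells in 96-well plates receive the compound at five concentrations for 48 hours. Endpoints are linearly interpolated between the surrounding concentrations. GI50: concentration for 50% inhibition of growth. TGI is the concentration that stops growth completely.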

Turning to `CCn1nc(C#Cc2c(C)ccc3c(Nc4ccc(Cl)cc4)nccc23)c2c(N)ncnc21`, the GI50 was 3.66 µM in experiment [1]; 3.79 µM in experiment [2]; 3.31 µM in experiment [3]; 7.57 µM in experiment [4]; 6.16 µM in experiment [5]; 4.58 µM in experiment [6]. Moreover, the GI50 in experiment [7] is 2.63 µM; in experiment [8], 4.22 µM. The TGI is > 100 µM in experiment [1]; > 100 µM in experiment [2]; > 100 µM in experiment [3]; > 100 µM in experiment [4]; 53.5 µM in experiment [5]; > 100 µM in experiment [6]. In addition, the TGI in experiment [7] was 8.98 µM; in experiment [8], > 100 µM.
As for `Fc1cnccc1-c1nc2ccc3[nH]ncc3c2c2c1CCCC2`, the GI50 in experiment [1] was 1.67 µM; in experiment [2] it was 0.605 µM; in experiment [3], 1.84 µM; in experiment [4] it was 3.2 µM; in experiment [5], 3.5 µM; in experiment [6] it was 1.25 µM. Moreover, the GI50 in experiment [7] is 0.612 µM; in experiment [8], 1.41 µM. Further, the TGI in experiment [1] was 5.23 µM; in experiment [2] it was > 100 µM; in experiment [3], > 100 µM; in experiment [4] it was > 100 µM; in experiment [5], > 100 µM; in experiment [6] it was > 100 µM. The TGI in experiment [7] turned out to be 3.29 µM; in experiment [8], 7.74 µM.
As to `O=c1c2cc(F)ccc2sc2c(NCCCNCCO)nc3ccc(F)cc3c12`, the GI50 is 1.63 µM in experiment [1]; 1.84 µM in experiment [2]; 2.24 µM in experiment [3]; 1.64 µM in experiment [4]; 2.03 µM in experiment [5]; 1.92 µM in experiment [6]. Moreover, the GI50 in experiment [7] was 1.51 µM; in experiment [8], 1.63 µM. In addition, the TGI in experiment [1] was determined as 3.32 µM; in experiment [2], 3.58 µM; in experiment [3], 5.08 µM; in experiment [4] it was 3.18 µM; in experiment [5], 4.43 µM; in experiment [6], 4.4 µM. Further, the values for the TGI in experiment [7] and in experiment [8] were 2.95 µM and 3.24 µM, respectively.
Consider `CNC(=S)N/N=C/CSC/C=N/NC(=S)NC`, for which the GI50 is > 100 µM in experiment [1]; > 100 µM in experiment [2]; 24.7 µM in experiment [3]; > 100 µM in experiment [4]; > 100 µM in experiment [6]; > 100 µM in experiment [7]. The GI50 in experiment [8] is > 100 µM. Besides, the TGI in experiment [1], in experiment [2], in experiment [3], in experiment [4], in experiment [5] and in experiment [6] was > 100 µM each time. In addition, the TGI in experiment [7] and in experiment [8] was > 100 µM in each case.
Turning to `Cc1ccc(CNc2ccc(Cl)cc2NCc2ccc(C)c(O)c2)cc1O`, the GI50 was 8.27 µM in experiment [1]; 6.52 µM in experiment [2]; 5.02 µM in experiment [3]; 8.96 µM in experiment [4]; 6.63 µM in experiment [5]; 8.13 µM in experiment [6]. The GI50 in experiment [7] was 7.5 µM; in experiment [8] it was 8 µM. For the same compound, the TGI in experiment [1] was 15.4 µM; in experiment [2] it was 13.8 µM; in experiment [3], 17.2 µM; in experiment [4], 16.6 µM; in experiment [5] it was 14.4 µM; in experiment [6], 15.3 µM. Besides, the TGI in experiment [7] is 14.5 µM; in experiment [8], 15.9 µM.
Consider `CC[C@@]12CC(C(=O)OC)=C3Nc4ccccc4[C@@]34CCN(C[C@H]3O[C@H]31)[C@@H]24`, for which the GI50 was > 100 µM in experiment [1]; 41.3 µM in experiment [2]; 33.9 µM in experiment [3]; > 100 µM in experiment [4]; 82.5 µM in experiment [5]; 58.3 µM in experiment [6]. The GI50 was 26.4 µM in experiment [7] and 46.6 µM in experiment [8]. For the same compound, the TGI in experiment [1], in experiment [2], in experiment [3], in experiment [4], in experiment [5] and in experiment [6] was > 100 µM throughout. Moreover, the TGI in experiment [7] and in experiment [8] was > 100 µM throughout.
Consider `O=C1Nc2ccc(I)cc2/C1=C/c1cc(Br)c(O)c(Br)c1`, for which the GI50 is > 24.1 µM and 18.2 µM in experiment [1]; > 15.9 µM and 12 µM in experiment [2]; > 18.5 µM and 6.24 µM in experiment [3]; 24.5 µM and 16.3 µM in experiment [4]; 24.8 µM and 23.3 µM in experiment [5]; > 24.2 µM and 22.7 µM in experiment [6]. In addition, the GI50 in experiment [7] is > 16.6 µM and 12 µM; in experiment [8] it was > 17.4 µM and 17 µM. Moreover, the TGI was > 25 µM and 45.5 µM in experiment [1]; > 25 µM and 28.7 µM in experiment [2]; > 25 µM and 51.3 µM in experiment [3]; > 25 µM and 33.6 µM in experiment [4]; > 100 µM in experiment [5]; > 25 µM and 97 µM in experiment [6]. The TGI in experiment [7] is > 25 µM and 28.3 µM; in experiment [8], > 25 µM and 44.1 µM.
As to `CCCN1CCCC(c2ccc(Nc3nc(Nc4cc(F)ccc4C(N)=O)c4cc[nH]c4n3)c(OC)c2)C1` (stereo not drawn), the GI50 in experiment [1] was 2.84 µM; in experiment [2], 2.72 µM; in experiment [3] it was 1.55 µM; in experiment [4], 2.58 µM; in experiment [5] it was 3.03 µM; in experiment [6], 0.129 µM. The GI50 in experiment [7] is 0.942 µM; in experiment [8], 0.116 µM. Besides, the TGI in experiment [1] was determined as 6.29 µM; in experiment [2], 5.86 µM; in experiment [3] it was 18.4 µM; in experiment [4], 5.64 µM; in experiment [5], 6.13 µM; in experiment [6], 4.16 µM. Besides, the TGI in experiment [7] is 4.48 µM; in experiment [8] it was 2.99 µM.
In the case of `CN1CC[C@H](N(C)C(=O)N2CC(c3cc(F)ccc3F)=C[C@@]2(CO)c2ccccc2)[C@H](F)C1`, the GI50 in experiment [1] was 0.0072 µM; in experiment [2], 0.0277 µM; in experiment [3] it was 0.017 µM; in experiment [4], 0.037 µM; in experiment [5], 20.5 µM; in experiment [6], 0.0383 µM. For the same compound, the results for the GI50 in experiment [7] and in experiment [8] were 0.0052 µM and 0.0308 µM, respectively. The TGI in experiment [1] was > 100 µM; in experiment [2], > 100 µM; in experiment [3] it was > 100 µM; in experiment [4], 13.4 µM; in experiment [5], > 100 µM; in experiment [6], > 100 µM. The TGI in experiment [7] was 5.13 µM; in experiment [8], > 100 µM.

Values taken from PubChem BioAssay (NCI).
